Laboratory results reported in patent US5547845A (Duke University, priority 1994, dated 1996).
pKd: −log10 of the molar value. “Also recorded” adds a separate entry of the source. Read-outs that look alike come from different tables or passages of the source.

Assays:
[1] = target: T1, human D1 dopamine receptor (clone HGL26) (Homo sapiens, UniProt P21728); test: Competition for [^125 I]SCH23982 binding to membranes of COS-7 cells expressing HGL26; parameters: a 2.3 kb EcoRI-XbaI restriction fragment containing the open reading frame was subcloned into the expression vector pCMV5; expressed in transfected cells; host or cells: African green monkey kidney COS-7 cells, transient, pCMV5
[2] = target: T1, human D1 dopamine receptor (clone HGL26); test: Adenylyl cyclase activity in membranes of mouse fibroblasts [L-M(TK^-)] expressing HGL26; type: biochemical; conditions: for block of dopamine-stimulated adenylyl cyclase activity: dopamine 100 μM, SCH23390 and raclopride 1 μM each
[3] = target: T2, human D1 dopamine receptor (clone HGR213-1) (Homo sapiens, UniProt P21728); type: binding; parameters: expressed in transfected cells; host or cells: monkey kidney COS-7 cells, transient, PBC12BI; conditions: FIG. 4 competition curves
[4] = target: T2, human D1 dopamine receptor (clone HGR213-1); test: cAMP accumulation in human embryonic kidney 293 cells transfected with HGR213-1
[5] = test system: untransfected COS-7 cells; test: Specific binding of [^3 H]SCH23390 to untransfected COS-7 cells; parameters: species or system monkey; conditions: data not shown
Protocol: Membranes were prepared by homogenizing cells with a ConTorque homogenizer at 4° C. in TEM buffer. The homogenate was centrifuged at 800 g for 10 min and the pellet was subjected to a second homogenization and centrifugation. Supernatants were pooled and centrifuged at 100,000 g for 1 h. The pellet was then resuspended in TEM buffer at appropriate protein concentration and stored in small aliquots at -70° C. […] Binding was initiated by the addition of membrane preparation (20-30 μg protein) and carried on at 30° C. for 1 h. Nonspecific binding was defined in the presence of 10 μM (+)Butaclamol. The samples were filtered through glass fiber filters (Schleicher and Schuell No.32) and washed three times with 4 ml ice-cold 10 mM Tris pH 7.4. The radioactivity retained on the filter was counted using a Beckman LS6800 scintillation counter. […] See J. Bunzow et al., Nature 336,783 (1988). […] A LIGAND computer program was used for data analysis and curve fitting.

[6] = target: T1, human D1 dopamine receptor (clone HGL26); test: Saturation binding of [^125 I]SCH23982 to membranes of COS-7 cells expressing HGL26; parameters: a 2.3 kb EcoRI-XbaI restriction fragment containing the open reading frame was subcloned into the expression vector pCMV5; expressed in transfected cells; host or cells: African green monkey kidney COS-7 cells, transient, pCMV5; conditions: transfected COS-7 membranes vs antisense construct
Protocol: To identify the protein encoded by genomic clone HGL26, a 2.3 kb EcoRI-XbaI restriction fragment containing the open reading frame was subcloned into the expression vector pCMV5 and transiently transfected into African green monkey kidney (COS-7) cells. See Andersson, S. et al., J. Biol. Chem. 264, 8222-8229 (1989). The DEAE-dextran method was used for transient transfection of COS-7 cells. See Cullen, B. Meth. Enzymol. 152, 684-704 (1987). After 48 hours, transfected cells were lysed and homogenized in ice-cold lysis buffer (10 mM Tris HCl, pH 7.4, 5 mM EDTA). The homogenate was centrifuged at 43,000 g for 30 min at 4° C. The resulting pellet was resuspended in lysis buffer, re-homogenized, and re-centrifuged. This pellet was resuspended in an assay buffer containing 50 mM Tris HCl, pH 7.4, 100 mM NaCl, 5 mM EDTA.
See Sidhu, A. et al., J. Eur. J. Pharmacol. 128, 213-220 (1986).

α1-adrenergic receptor = conditions: α1-adrenergic receptor-transfected COS-7 cells; data not shown
[7] = ~0.3 nM [^125 I]SCH23982, 1 hr, room temperature, means of 2-5 independent determinations, one-site model, read-out: Kd (apparent equilibrium dissociation constant) for [^125 I]SCH23982 binding sites

T2 sequence (P21728 whole entry): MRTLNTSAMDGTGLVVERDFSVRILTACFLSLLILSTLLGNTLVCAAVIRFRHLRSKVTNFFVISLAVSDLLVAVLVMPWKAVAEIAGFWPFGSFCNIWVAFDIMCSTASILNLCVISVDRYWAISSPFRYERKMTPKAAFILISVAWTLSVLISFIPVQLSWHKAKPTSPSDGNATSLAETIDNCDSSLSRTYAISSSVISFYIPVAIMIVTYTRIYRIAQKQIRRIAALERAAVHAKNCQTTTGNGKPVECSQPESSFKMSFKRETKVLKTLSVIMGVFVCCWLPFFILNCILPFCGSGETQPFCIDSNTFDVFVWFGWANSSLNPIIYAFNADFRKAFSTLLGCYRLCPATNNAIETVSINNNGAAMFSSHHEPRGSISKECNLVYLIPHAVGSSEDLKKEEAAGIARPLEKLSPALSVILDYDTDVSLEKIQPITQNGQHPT
T1 sequence (P21728 whole entry, the tested form may be a part): as the sequence (P21728 whole entry) above

`CCN1CCC[C@H]1CNC(=O)c1c(O)c(Cl)cc(Cl)c1OC` (racemic) [raclopride] was tested, and the pKd [1, 7] was < 4.14 and the “block of dopamine-stimulated adenylyl cyclase activity” value [2] was “not by the D2 antagonist raclopride”.
For `CN1CCc2cc(Cl)c(O)cc2[C@@H](c2ccccc2)C1` [SCH23390], the “block of dopamine-stimulated adenylyl cyclase activity” value [2] was “blocked”, the “potency in competition with [^3 H]SCH23390 (in words)” value [3] was “most potent” and the “rank order of ligand potency” value [3] was “SCH23390<(+)Butaclamol>Flupenthixol>>Haloperidol”. For the same compound, the “antagonism of agonist-stimulated cAMP production” value [4] was “blocked; also recorded: antagonized”.
With `Oc1cc2c(cc1O)C(c1ccccc1)CNCC2` (stereo not drawn) [SKF38393] the “stimulation of adenylyl cyclase activity (in words)” value ([2]; SKF38393 and quinpirole, 1 μM each) was “also stimulated enzyme activity”.
In the case of `Oc1ccc(C2CNCCc3c2cc(O)c(O)c3Cl)cc1` (stereo not drawn) [SKF82526], the “potency in competition with [^3 H]SCH23390 (in words)” value [3] was “most potent”.
With `CN1CCc2cc(Cl)c(O)cc2C(c2ccccc2)C1` (stereo not drawn) [[^3 H]SCH23390] the “specific binding to untransfected cells” value [5] was “no specific binding”.
With `CN1CCc2cc([125I])c(O)cc2[C@@H](c2ccccc2)C1` [[^125 I]SCH23982] the “increase in specific binding compared to cells transfected with an antisense construct” value [6] was 10- to 30 fold.
With `C=CCc1ccccc1OCC(O)CNC(C)C` (stereo not drawn) [alprenolol] the pKd [1] was 4.80.
In the case of `OCCN1CCN(CC/C=C2/c3ccccc3Sc3ccc(C(F)(F)F)cc32)CC1` [cis-flupenthixol], the “rank order of ligand potency” value [3] was “SCH23390<(+)Butaclamol>Flupenthixol>>Haloperidol”.
`OCCC1CCN(CC/C=C2/c3ccc(F)cc3Sc3ccc(C(F)(F)F)cc32)CC1` [cis-piflutixol] showed a pKd [1, 7] of 9.70.
For `CNC[C@H](O)c1ccc(O)c(O)c1` [epinephrine], the “stimulation of phosphatidylinositol (PI) metabolism” value (α1-adrenergic receptor) was “potently evoked this response”.
With `O=C(CCCN1CCC2(CC1)C(=O)NCN2c1ccccc1)c1ccc(F)cc1` [spiperone] the pKd [1] was 6.66.
